# US20100029654A1, “CARDIOVASCULAR COMPOSITIONS AND USE OF THE SAME FOR THE TREATMENT OF ALZHEIMER'S DISEASE” (MOUNT SINAI SCHOOL OF MEDICINE, priority 2006, published 2010)
# Several values for one entry are separate records, joined by “and”; a condition that tells them apart may be missing. Equal entries are not always repeated. Structures can show the parent of a compound that is named as a salt. Where two headings read alike, the source gives them in different places.
# Key:
# [1] = system: Tg2576 mice; assay: tolerability: body weight, fluid consumption, glucose tolerance; details: Tg2576, short-term dosing
# [2] = system: primary cortico-hippocampal neuron cultures; assay: MTT in primary screening
# [3] = system: Tg2576 mice; assay: blood pressure (systolic, diastolic, MAP) by tail-cuff; format: in vivo, mouse; details: Tg2576, 3 weeks
# Method: FIG. 1 Tg2576 mice are characterized by normal blood pressure under basal conditions. Baseline measurements of systolic, diastolic blood pressure, and mean arteriole blood pressure (MAP) in ˜11 month old female Tg2576 mice. Strain-, age-, gender-matched WT mice were measured using a commercial blood pressure analysis system designed specifically for small rodents (Hatteras Instruments, NC). Following manufacturer's instruction, mice were temporarily immobilized in a restraining chamber and an inflated tail-cuff wrapped around the tail was used to measure the systolic pressure, diastolic pressure, and MAP. Each blood pressure determination was calculated as the mean of 10 individual measurements per animal (n=6-10 group).
# FIG. 6A-C show body weight of mice in response to ˜3 weeks of treatment. […] FIG. 6D-F show the assessment of systolic, diastolic, and MAP blood pressure in Tg2576 mice in response to drug doses below or within the range of those prescribed in hypertension. Blood pressure measurements were conducted using a commercial blood pressure analysis system designed specifically for small rodents (Hatteras Instruments, NC). Following manufacturer's instruction, mice were temporarily immobilized in a restraining chamber and an inflated tail-cuff wrapped around the tail was used to measure pressures. Each blood pressure determination was calculated as the mean of 10 individual measurements per animal. In A-F, values represent mean±SEM values, n=3-5 mice per group. 2-tailed t-test: *P<0.05.
# Assessment of blood pressure and glucose utilization. Mouse blood pressure was routinely recorded using a commercial blood pressure analysis system designed specifically for small rodents (Hatteras Instruments, NC). […] Briefly, mice were given a single dose of glucose post-prandially (i.p. 2 g/kg body weight). Blood was collected from the tail-vein periodically over a 2-hour period. Blood glycemic content was assessed using the OneTouch LifeScan System, (LifeScan, Milpitas, Calif.) following the manufacturer's instruction.
# [4] = system: Aβ1-42; assay: Aβ1-42 content in conditioned medium of primary cortico-hippocampal neuron cultures from Tg2576 mice (ELISA; primary and secondary dose-response screening); format: cell-based, mouse; details: for EC50 / activity at 100 µM: Mus musculus; for activity at 100 µM: read-out: Ab1-42 (% of ctl)
# [5] = system: primary cortico-hippocampal neuron cultures; assay: lactate dehydrogenase (LDH) activity assay in parallel neuron cultures; details: for LDH at E-5M % of change: drug at E-5M
# Method: (§1) For in vitro treatments drugs available from “The Spectrum Collection” in stocks of 10 mM in DMSO were applied directly to cultures to the desired concentrations (final 1% DMSO); control primary neuron cultures from Tg2576 embryos were treated with vehicle resulting in a final 1% DMSO.
# (§2) Cell viability was assessed using a commercial available LDH assay kit according to the manufacture's instruction (Promega).
# [6] = system: Aβ1-42; assay: Aβ1-42 content in conditioned medium of primary cortico-hippocampal neuron cultures from Tg2576 mice (ELISA; primary and secondary dose-response screening); format: cell-based, mouse; details: for activity at 100 µM: Mus musculus, Neuron, 24 h, read-out: Ab1-42 (% of ctl); for activity at 100 µM / Ab1-42 (% of ctl): drug 100 μM; for reducing Aβ1-42: <85% of ctl
# Summary of the method: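 Primary cortico-hippocampal neurons from embryonic Tg2576 mouse brain were seeded on poly-D-lysine-coated 96-well plates at 1.0×10^5 cells per well in serum-free Neurobasal medium with 2% B27, 0.5 mM L-glutamine and 1% penicillin-streptomycin. For primary screening, duplicate wells received 100 μM drug (1% DMSO final). Vehicle-treated cultures served as controls, and Aβ1-42 in conditioned medium was measured by commercial ELISA.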
# [7] = system: Aβ1-40; assay: Aβ1-40 content in conditioned medium of primary cortico-hippocampal neuron cultures from Tg2576 mice (ELISA; primary and secondary dose-response screening); format: cell-based, mouse; details: for activity at 100 µM / EC50: Mus musculus; for activity at 100 µM: 24 h, read-out: Ab1-40 (% of ctl)
# Summary of the method: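 Primary cortico-hippocampal neurons from embryonic Tg2576 mice were plated at 1.0×10^5 cells per well on poly-D-lysine-coated 96-well plates in Neurobasal with 2% B27, 0.5 mM L-glutamine and 1% penicillin-streptomycin. Cultures received drug in 1% DMSO, and Aβ1-40 in the conditioned medium was measured by BioSource ELISA 24 hours after treatment, relative to vehicle controls.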
# [8] = system: primary cortico-hippocampal neuron cultures
# [9] = system: primary cortico-hippocampal neuron cultures; remark: listed apart in the source
# Method: as §1, §2
# [10] = Primary Screening, table sorted by Aβ1-40
# [11] = primary screening, table sorted by Aβ1-42
# [12] = primary screening, Tg2576 neuron cultures, table sorted by Aβ1-42
# [13] = Neuron, Primary Screening, drug 100 μM, table sorted by Aβ1-40
# [14] = Neuron, primary screening, drug 100 μM, Tg2576 neuron cultures, table sorted by Aβ1-42
# [15] = 24 h, primary screening, drug 100 μM, Tg2576 neuron cultures, table sorted by Aβ1-42
# [16] = primary screening, drug 100 μM, Tg2576 neuron cultures, table sorted by Aβ1-42
# [17] = Primary Screening, drug 100 μM, table sorted by Aβ1-40
# [18] = Primary Screening, table sorted by Aβ1-40, Hydrochloride
# [19] = primary screening, table sorted by Aβ1-42, Hydrochloride
Molecule,"MTT (% of ctl) [2, 10]","MTT (% of ctl) [2, 11]","LDH (% of ctl) [5, 10]","LDH (% of ctl) [5, 11]","reduced Aβ1-40 ([7]; primary screening, <85% of ctl)","activity at 100 µM [4, 15]","Ab1-42 (% of ctl) [6, 10]",reducing Aβ1-42 ([6]; primary screening),"activity at 100 µM [7, 16]","Ab1-40 (% of ctl) [7, 17]",also measured
CCCCc1nc(Cl)c(CO)n1Cc1ccc(-c2ccccc2-c2nn[nH]n2)cc1 [Losartan],71.3 % of ctl,71.3 % of ctl,110.4 % of ctl,110.4 % of ctl,reduced Aβ1-40,,,,,,"fluid intake [1]: did not significantly influence the amount of fluid intake; systolic, diastolic, MAP blood pressure ([3]; doses within the range used for hypertension): decreased systolic, diastolic, and MAP blood pressure; systolic, diastolic, MAP blood pressure ([3]; doses ~3 fold below the minimal hypertension dose): did not significantly influence either systolic, diastolic or MAP blood pressure; EC50 ([4]; Neuron, Table IV, dose-response 0.01-100 μM, read-out: EC50 (M): Ab-lowering activity): 0.0001 M; LDH (at 5F-5 M) ([5]; Table IV): no change; activity at 100 µM [6, 10]: 97.1%; activity at 100 µM [6, 12]: 97.1%; activity at 100 µM [7, 13]: 76%; activity at 100 µM [7, 14]: 76%; EC50 ([7]; Neuron, Table IV, dose-response 0.01-100 μM, read-out: EC50 (M): Ab-lowering activity Abeta1-40): 0.000117 M"
CC(Cc1ccc(O)cc1)NCC(O)c1cc(O)cc(O)c1 (stereo not shown) [Fenoterol Hydrobromide],,,,,,78.8%,78.8 % of ctl,useful in reducing Aβ1-42,89.3%,89.3 % of ctl,"MTT (% of ctl) ([8]; Tg2576, mouse): 93.9 % of ctl; LDH (% of ctl) ([9]; Tg2576, mouse): 104.3 % of ctl"
COc1ccc(Cc2nccc3cc(OC)c(OC)cc23)cc1OC [Papaverine Hydrochloride],,,118.4 % of ctl,118.4 % of ctl,reduced Aβ1-40,30.1%,30.1 % of ctl,useful in reducing Aβ1-42,15.3%,15.3 % of ctl,"MTT (% of ctl) ([8]; Tg2576, mouse, 100 µM): 92.2 % of ctl; EC50 ([4]; Neuron, secondary dose-response screening 0.01-100 μM, 24 hours, read-out: EC50 (molar) Aβ1-42): 1.91e-05 M; LDH at E-5M % of change [5]: −8.9%; EC50 ([7]; Neuron, secondary dose-response screening 0.01-100 μM, 24 hours, read-out: EC50 (molar) Aβ1-40): 1.72e-05 M"
CC(C)NCC(O)COc1cccc2ccccc12.Cl (stereo not drawn) [Propranolol Hydrochloride (−)],,,,,reduced Aβ1-40,,32.8 % of ctl,useful in reducing Aβ1-42,,55.0 % of ctl,"LDH (% of ctl) [9]: 166.6 % of ctl; Ab1-42 (% of ctl) [6, 12]: 32.8 % of ctl; Ab1-40 (% of ctl) [7, 16]: 55.0 % of ctl"
Veratrine Sulfate,,,,,reduced Aβ1-40,,87.1 % of ctl,,,58.5 % of ctl,"MTT (% of ctl) [8]: 84.4 % of ctl; LDH (% of ctl) [9]: 124.4 % of ctl; Ab1-42 (% of ctl) [6, 12]: 87.1 % of ctl; Ab1-40 (% of ctl) [7, 16]: 58.5 % of ctl"
"COc1cccc(OC)c1OCCNCC1COc2ccccc2O1.Cl (stereo not shown) [2-(2,6-Dimethoxyphenoxyethyl) Aminomethyl-1,4-Benzodioxane Hydrochloride]",,,,,,,,,,,MTT (% of ctl) [8]: 95.5 % of ctl; Ab1-42 (% of ctl) [4]: 94.7 % of ctl; LDH (% of ctl) [9]: 103.9 % of ctl; Ab1-40 (% of ctl) [7]: 82.6 % of ctl; reduced Aβ1-40 [7]: reduced Aβ1-40
N=C(N)NCCN1CCCCCCC1 [Guanethidine Sulfate],,,,,,,,,,,"LDH (% of ctl) ([9]; Tg2576, mouse): 1057.3 % of ctl"
Cl.NCCc1ccc(O)c(O)c1 [Dopamine Hydrochloride],,,,,,,,,,,"MTT (% of ctl) ([8]; Tg2576, mouse): 95.7 % of ctl; reducing Aβ1-42 [4]: useful in reducing Aβ1-42; activity at 100 µM ([4]; Neuron, 24 h): 78.3%; LDH (% of ctl) ([9]; Tg2576, mouse): 559.5 % of ctl; reduced Aβ1-40 [7]: reduced Aβ1-40; activity at 100 µM ([7]; Neuron): 85%"
CC(=O)[O-].CC(=O)[O-].[Cd+2] [Cadmium Acetate],,,,,,,,,,,MTT (% of ctl) [8]: 29.1 % of ctl; Ab1-42 (% of ctl) [4]: 3.8 % of ctl; reducing Aβ1-42 [4]: useful in reducing Aβ1-42; LDH (% of ctl) [9]: 889.8 % of ctl; Ab1-40 (% of ctl) [7]: 29.5 % of ctl; reduced Aβ1-40 [7]: reduced Aβ1-40
CCN1C[C@]2(C)CC[C@H](OC)[C@@]34C1[C@]1(OCO[C@@]15C[C@H](OC)[C@H]1C[C@]3(O)[C@@H]5[C@H]1OC)[C@@H](OC(C)=O)[C@H]24 [Deltaline],99.4 % of ctl,99.4 % of ctl,118.9 % of ctl,118.9 % of ctl,,143%,143.0 % of ctl,,121%,121.0 % of ctl,
NCCc1cc(O)c(O)cc1O [Oxidopamine Hydrochloride],121.5 % of ctl,121.5 % of ctl,103.6 % of ctl,103.6 % of ctl,reduced Aβ1-40,36.4%,36.4 % of ctl,useful in reducing Aβ1-42,43.8%,43.8 % of ctl,
CC(COc1ccccc1)NC(C)C(O)c1ccc(O)cc1 (stereo not shown) [Isoxsuprine Hydrochloride],,,,,reduced Aβ1-40,,,useful in reducing Aβ1-42,,,"MTT (% of ctl) [2, 18]: 99.8 % of ctl and 93.1 % of ctl; MTT (% of ctl) [2, 19]: 99.8 % of ctl and 93.1 % of ctl; EC50 ([4]; Neuron, 24 h, secondary dose-response screening 0.01-100 μM, 24 hours, read-out: EC50 (molar) Aβ1-42): 8.07e-06 M; LDH (% of ctl) [5, 18]: 106.2 % of ctl and 107.7 % of ctl; LDH at E-5M % of change [5]: 5.0%; LDH (% of ctl) [5, 19]: 106.2 % of ctl and 107.7 % of ctl; activity at 100 µM [6, 10]: 83.7%; activity at 100 µM [6, 12]: 83.7%; activity at 100 µM [7, 13]: 78.3%; activity at 100 µM [7, 14]: 78.3%; EC50 (molar) Aβ1-40 ([7]; secondary dose-response screening 0.01-100 μM, 24 hours): no fit"
NCCCCCC(=O)O [Aminocaproic Acid],80.3 % of ctl,80.3 % of ctl,90.4 % of ctl,90.4 % of ctl,,184%,184.3 % of ctl,,124%,124.4 % of ctl,
CC[C@H]1[C@@H]2C[C@H]3[C@@H]4N(C)c5ccccc5[C@]45C[C@@H]([C@H]2[C@H]5O)N3[C@@H]1O [Ajmaline],90.3 % of ctl,90.3 % of ctl,,,,103%,103.3 % of ctl,,114%,114.0 % of ctl,"LDH (% of ctl) ([9]; Tg2576, mouse): 97.6 % of ctl"
